Values quoted from earlier work as cited in patent publication US20070104792A1, “Nanoparticulate tadalafil formulations” (Elan Pharma International, Limited, priority 2005, published 2007).

Conditions: conventional crystalline solid

Solubility in ethanol (ethanol): very slightly soluble in ethanol | Solubility in water (water): practically insoluble in water
SMILES: CN1CC(=O)N2[C@H](c3ccc4c(c3)OCO4)c3[nH]c4ccccc4c3C[C@@H]2C1=O [tadalafil, pyrazino[1′,2′:1,6]pyrido[3,4-b]indole-1,4-dione, 6-(1,3-benzodioxol-5-yl)-2,3,6,7,12,12a-hexahydro-2-methyl-, (6R,12aR)]
